Here are results for 17 molecules from PMC7897990, “TriTOX: A novel Trichomonas vaginalis assay platform for high-throughput screening of compound libraries” (International Journal for Parasitology: Drugs and Drug …, 2021).

The test system of the assay is Trichomonas vaginalis G3 trophozoites. To be noted: for T. vaginalis HTS result in words: 384-well, 25 μL, 10,000 cells/mL, 48 h, biological duplicates, hit = >50% inhibition; for T.vaginalis_Absorbance_Rep1: replicate 1, raw absorbance; for T.vaginalis_Absorbance_Rep2: replicate 2, raw absorbance.
The mark [1] stands for this setting: HTS, parasite screen at 1 µg/mL, replicate 1.
[2] abbreviates: HTS, parasite screen at 1 µg/mL, replicate 2.
The mark [3] stands for this setting: HTS, parasite screen at 1 µg/mL.

Like-named read-outs stand apart in the source and are kept apart here. Positions of bridges follow the written chain, without caps; N, C: chain ends. Non-standard residues stand in square brackets, D forms with d. Residues, ends and D or L forms follow the SMILES beside them. *: point of attachment. NMePhe(4-NMe2) = CN[C@@H](Cc1ccc(N(C)C)cc1)C(=O)O; Pip(4-oxo) = O=C1CCN[C@H](C(=O)O)C1; Picolinoyl(3-OH) = O=C(c1ncccc1O)*; Phg = N[C@H](C(=O)O)c1ccccc1; dAbu = CC[C@@H](N)C(=O)O; GABA = NCCCC(=O)O

Take `CCC(C)C1NC(=O)c2c1n(C)c1ccccc1c2=O` (stereo not shown) [Quinolactacin A1]: the T.vaginalis_%inb_Rep1 (HTS replicate 1, parasite screen 1 µg/mL) amounted to 10.96%. Under “HTS replicate 2, parasite screen 1 µg/mL”, this molecule yielded a T.vaginalis_%inb_Rep2 of 16.33%. Consider `CC(=O)c1c(O)c(C(C)=O)c(O)c(C(C)=O)c1O` [Triacetylphloroglucinol], for which the T.vaginalis_%inb_Rep1 under setting [1] was 10.38%. Also, the T.vaginalis_%inb_Rep2 under setting [2] is reported as 10.12%. For the molecule `CCCNC[C@]1(O)[C@H](C)O[C@@H](O[C@H]2[C@H](C)[C@@H](O[C@@H]3O[C@H](C)C[C@H](N(C)C)[C@H]3O)[C@](C)(O)C[C@@H](C)CN[C@H](C)[C@@H](O)[C@](C)(O)[C@@H](CC)OC(=O)[C@@H]2C)C[C@@]1(C)OC` [Tulathromycin], under setting [1], the T.vaginalis_%inb_Rep1 came out at 10.12%. The molecule also registered a T.vaginalis_%inb_Rep2 under setting [2] of 14.75%. With `CC(C)=CC(=O)CC(C)c1ccc(C)cc1` (stereo not shown) [Turmerone], the T.vaginalis_%inb_Rep1 under setting [1] was 9.33%. Under setting [2], this molecule registered a T.vaginalis_%inb_Rep2 of 14.44%. As for `C/C=C(\C)c1cc(O)c(C)c2c1Oc1cc(O)cc(C)c1C(=O)O2` [Unguinol], the T.vaginalis_%inb_Rep1 under setting [1] was 8.70%. This molecule also came in with a T.vaginalis_%inb_Rep2 under setting [2] of 4.39%. For the molecule `CC(C)C[C@@H]1NC(=O)[C@@H](C(C)C)NC(=O)[C@@H](C)NC(=O)CCCNC(=O)[C@@H](Cc2c[nH]c3ccccc23)NC(=O)[C@@H](C)NC(=O)[C@@H](C(C)C)NC1=O` [Unguisin B] (cyclo([GABA][dA][dV]L[dV][dA][dW])), under setting [1], the T.vaginalis_%inb_Rep1 is reported as 10.17%. Under setting [2], this molecule showed a T.vaginalis_%inb_Rep2 of 14.69%.

The molecule `CC[C@H]1NC(=O)[C@@H](NC(=O)c2ncccc2O)[C@@H](C)OC(=O)[C@H](c2ccccc2)NC(=O)[C@@H]2CC(=O)CCN2C(=O)[C@H](Cc2ccc(N(C)C)cc2)N(C)C(=O)[C@@H]2CCCN2C1=O` [Virginiamycin B] ({Picolinoyl(3-OH)}-T[dAbu]P[NMePhe(4-NMe2)][Pip(4-oxo)][Phg]; ester 1-C) came in with a T.vaginalis_%inb_Rep1 under setting [1] of 8.39%. In addition, the T.vaginalis_%inb_Rep2 under setting [2] is given as 11.09%. Under setting [1], `CCC1NC(=O)C(NC(=O)c2ncccc2O)C(C)OC(=O)C(c2ccccc2)NC(=O)C2CC(=O)CCN2C(=O)C(Cc2ccccc2)N(C)C(=O)C2CCCN2C1=O` (stereo not shown) [Virginiamycin S1] displayed a T.vaginalis_%inb_Rep1 of 9.96%. Also, the T.vaginalis_%inb_Rep2 under setting [2] is given as 3.72%. For the molecule `O=c1[nH]c2ccccc2c(-c2cccc(O)c2)c1O` [Viridicatol], the T.vaginalis_%inb_Rep1 under setting [1] came out at 6.71%. For the same molecule, the T.vaginalis_%inb_Rep2 under setting [2] came out at 14.99%. Take `COc1ccc(C[C@H]2NC[C@H](O)[C@H]2OC(C)=O)cc1` [anisomycin, reference compound]: the “T. vaginalis HTS result in words” value is on record as “supported the anti-trichomonal activity”. With `COc1ccc2nc(C(=O)N[C@@H]3COC(=O)[C@H](C(C)(C)O)N(C)C(=O)CN(C)C(=O)CNC(=O)[C@@H]4[C@@H](OC(C)=O)CC=NN4C(=O)[C@H](NC(=O)c4nc5ccc(OC)cc5cc4O)COC(=O)[C@H](C(C)(C)O)N(C)C(=O)CN(C)C(=O)CNC(=O)[C@@H]4[C@@H](OC(C)=O)CC=NN4C3=O)c(O)cc2c1` [luzopeptin A, reference compound], the “T. vaginalis HTS result in words” value is listed as “partial hits”. As to `CN[C@@H]1C[C@H]2O[C@@](C)([C@@H]1OC)n1c3ccccc3c3c4c(c5c6ccccc6n2c5c31)C(=O)NC4` [staurosporine, reference compound], the “T. vaginalis HTS result in words” value was “supported the anti-trichomonal activity”. On to `CC(=O)Nc1c2sscc-2n(C)c1=O` [thiolutin, reference compound], for which the “T. vaginalis HTS result in words” value was “supported the anti-trichomonal activity”. As to `O=C(O)c1c(=O)cccc2ssc12` [tropodithietic acid, reference compound], the “T. vaginalis HTS result in words” value was “partial hits”. The T.vaginalis_%inb_Rep1 under setting [1] is 11.01%. In addition, the T.vaginalis_%inb_Rep2 under setting [2] was found to be 97.50%. Under setting [3], Elaiophylin registered a T.vaginalis_Absorbance_Rep1 of 0.954 and a T.vaginalis_Absorbance_Rep2 of 0.689. Consider Enniatin A, for which, under setting [3], the T.vaginalis_Absorbance_Rep1 worked out at 0.983 and the T.vaginalis_Absorbance_Rep2 was 0.865. Under setting [3], Enniatin A1 had a T.vaginalis_Absorbance_Rep1 of 0.98 and a T.vaginalis_Absorbance_Rep2 of 0.8.
